Earlier results in patent US9456994B2, “Efficient process for the preparation of lycopene containing oleoresin and lycopene crystals for human consumption” (OMNIACTIVE HEALTH TECHNOLOGIES LIMITED, priority 2011, dated 2016).

What was measured:
[1] = organic solvents

For `CC(C)=CCC/C(C)=C/C=C/C(C)=C/C=C/C(C)=C/C=C/C=C(C)/C=C/C=C(C)/C=C/C=C(\C)CCC=C(C)C` [lycopene, Lycopene], the solubility [1] is listed as “soluble in chloroform, hexane, benzene, carbon disulphide, acetone, petroleum ether”, the lycopene lost (heated at 100 degree C in the presence of carbon dioxide) is listed as 5% and the lycopene degraded (heated at 100 degree C in the presence of oxygen) is listed as “More than 30%”.
